Source: patent US20220249622A1, “METHOD FOR PROTECTING BRAIN NEURON CELLS WITH BIOACTIVE COMPOUND” (TCI CO., LTD., priority 2021, published 2022)

Experiments:
[1] = tested on: human brain neurons SH-SYSY; experiment: Inhibitory effect on brain neuron damage caused by MPP+ (MTT cell viability); type: cell-based; details: 5 μM MPP+ alone (control group), 48 hours
Experimental: The cells, culture medium, MTT apoptosis detection solution, ELISA reader, and statistical method of cell viability used in this example are the same as in Example 5, and details are not described herein again.
The SII-SYSY cells were seeded at a density of 5×10^3 cells per well into a 96-well culture plate and incubated for 24 hours at 37° C. and 5% CO2.
The culture medium was removed from each well. The SH-SYSY cells were divided into a blank group, a control group, and an experimental group. The fresh culture medium was added into the wells of the blank group. The fresh culture medium containing 5 μM MPP+ was added into the wells of the control group. The fresh culture medium containing 5 μM MPP+ and 1 mg/mL catfish skin collagen peptide powder from Example 1 was added into the wells of the experimental group. Each group was triplicated and incubated at 37° C. for 48 hours.
Then, 15 μL of 5 MTT apoptosis detection solution was added to each group for 3-4 h at 37° C. and 5% CO2.
The culture medium in each well was removed. In each group, 50 μL of DMSO was added to dissolve the purple crystals of formazan. Finally, an absorbance (at 570 nm) of each group was measured by an ELISA reader to analyze the cell viability of each group.
Taking the value of the blank group as 100% of cell viability, each value of the control group and the experimental group was converted into cell viability (%).

[2] = tested on: mouse brain neuroblastoma cells Nero2a; experiment: Activity of mitochondria of neuron cells (JC-1 mitochondrial membrane potential assay, flow cytometer); type: cell-based; details: 24 hours, control group = 100%
Excerpt: 1. Cell strain: mouse brain neuroblastoma. cells Nero2a, from the American Type
Culture Collection (ATCC®, Cat. CCL-131), hereinafter referred to as Nero2a cells.
2. Culture medium: Dulbecco's modified Eagle's medium (DMEM, purchased from Gibco, Cat. 11965-092) containing 10 vol % of Fetal Bovine Serum (FBS, purchased from Gibco, 10437-028) and 3.7 g/L of sodium bicarbonate (purchased from Sigma, S5761-500G).
4. Mitochondrial n embranepotential assay kit (MitoScreen (.IC-1) kit purchased from BD, model 551302): with ,IC-1 dye (lyophilized) and 10× assay buffer. Before use, the assay buffer was diluted 10-fold with 1 PBS solution to form 1× assay buffer, 130 μl of dimethyl sulfoxide (DMSO) was added into the JC-1 dye (lyophilized) to form a JC-1 stock solution. Then, the stock solution was diluted to 1/100 with the 1 × assay buffer to form a JC-1 working reagent
6. Flow cytometer: purchased from BD Pharmingen, model BDTM Accuri C6 Plus.
The Nero2a cells were seeded into a 6-well culture plate at a density of […] cells per well, and 2 ml., of the above-mentioned fresh culture medium was added to each well and incubated for 24 hours at 37° C. and 5% CO2.
Remove the culture medium from each well. The Nero2a cells were divided into a control group and experimental groups 1-5. Control group was added with the fresh culture medium. Experimental group I was added with fresh culture medium containing 50 μg/mL synthesized peptide of SEQ .117 NO :1; experimental group 2 was added with fresh culture medium containing 50 μg/mL synthesized peptide of SEQ ID NO:2; experimental group 3 was added with fresh culture medium containing 50 μg/mL synthesized peptide of SEQ ID NO 3, experimental group 4 was added with fresh culture medium containing 25 μg/mL synthesized peptide of SEQ ID NO:4; and experimental group 5 was added with fresh culture medium containing 1 mg/mL of catfish skin collagen peptide powder from Example. 1. Each group was triplicated and incubated at 37C. for 24 hours.
In each group, the culture medium was removed, and then the cells were washed twice with the PBS solution. Then, 200 μL of trypsin solution was added to react with the cells for 3 min, and 6 mL of fresh culture medium was added to stop the reaction. […]
The cell solution of the control group and the cell solution of each experimental group were analyzed for the activity of mitochondria by using a flow cytometer.
Standard deviations were calculated by an STDEV formula of Excel software, and whether statistically significant differences existed or not was analyzed by one-tail student t-test in the Excel software. […] The p value of each group was calculated compared to the control group. […]

Row | Molecule | relative accumulation of JC-1 ([2]; 50 μg/mL synthesized peptide) | also measured
1 | C[n+]1ccc(-c2ccccc2)cc1 [MPP+, 1-methyl-4-phenylpyridin-1-ium] | – | cell viability ([1]; SH-SYSY cells, blank group = 100%): 86%; cell viability reduced by ([1]; vs blank group): 14%
2 | GRGGFGGRGGFG (listed as Pangasius bocourti) [SEQ ID NO: 3, synthesized peptide, peptide fragment of nucleolin from catfish skin] | 120.95% | –
3 | LVMGFHPQYL (listed as Pangasius bocourti) [SEQ ID NO: 4, synthesized peptide, peptide fragment of sestrin 1 from catfish skin] | – | relative accumulation of JC-1 ([2]; 25 μg/mL synthesized peptide): 115.74%
4 | NGTGPQNH (listed as Pangasius bocourti) [SEQ ID NO: 1] | 146.90% | –
5 | TAELEPLTDG (listed as Pangasius bocourti) [SEQ ID NO: 2, synthesized peptide, peptide fragment of NAD synthetase 1 from catfish skin] | 150,17% | –
